Laboratory results published in patent US20210378193A1, “HAPLOID EMBRYOGENESIS” (STICHTING WAGENINGEN RESEARCH, priority 2013, published 2021).

Tested on: BABY BOOM (BBM); LEAFY COTYLEDON1 (LEC1); LEC2, and FUSCA3
Assay: semi-quantitative RT-PCR of embryo-expressed genes in B. napus microspore culture
Format: cell-based, Brassica napus
Settings: TSA-treated microspore cultures, regardless of culture temperature
Experimental: Total RNA isolation and on-column DNase digestion were performed using the InviTrap Spin Plant RNA Mini Kit (Invitek) according to the manufacturer's instructions. For semi-quantitative RT-PCR, 250 ng of total RNA was used for first-strand cDNA synthesis with the Taqman Reverse Transcription Reagents Kit (Applied Biosystems). The cycling parameters were: one cycle at 98° C. for 30 s, 30 cycles comprising 98° C. for 5 s, 60° C. for 30 s, followed by 72° C. for 1 min. The semi-quantitative RT-PCR primers are from Malik et al. (2007) Plant Physiol. 144: 134-154. The quantitative RT-PCR primers for microarray validation were designed based on oligonucleotide probes from Affymetrix GeneChip® Brassica Exon 1.0ST Array (see Malik et al. (2007) supra and Love, C. G., et al. (2010) PloS one 5: e12812). The Arabidopsis hda T-DNA insertion lines were genotyped using the PCR primers. […]
The cell clusters that are formed in heat-stressed, TSA-treated cultures resemble those found in control cultures that are only exposed to a heat-stress treatment. […] Semi-quantitative RT-PCR and GFP reporter lines were used to determine whether the different types of sporophytic structures that develop in control and TSA-treated cultures are embryogenic. […]

CC(/C=C/C(=O)NO)=C\[C@@H](C)C(=O)c1ccc(N(C)C)cc1 [TSA, trichostatin A]
expression of BBM, LEC1, LEC2 and FUSCA3: enhanced
